# Results: patent US10526316B2, “Quinoxaline and pyridopyrazine derivatives as PI3Kβ inhibitors” (Janssen Pharmaceutica NV, priority 2015, dated 2020)
# Like-named read-outs stand apart in the source and are kept apart here.
# Experiments:
# PI3Kδ = biological target: T1, PI3Kδ (Homo sapiens, UniProt O00329); assay: Enzyme binding assay (KINOMEscan, DiscoveRx); settings: PIK3Cδ_h
# T1 construct: purchased DiscoveRx Corporation, San Diego (contract service, KINOMEscan)
# T1 sequence (O00329 1-1044): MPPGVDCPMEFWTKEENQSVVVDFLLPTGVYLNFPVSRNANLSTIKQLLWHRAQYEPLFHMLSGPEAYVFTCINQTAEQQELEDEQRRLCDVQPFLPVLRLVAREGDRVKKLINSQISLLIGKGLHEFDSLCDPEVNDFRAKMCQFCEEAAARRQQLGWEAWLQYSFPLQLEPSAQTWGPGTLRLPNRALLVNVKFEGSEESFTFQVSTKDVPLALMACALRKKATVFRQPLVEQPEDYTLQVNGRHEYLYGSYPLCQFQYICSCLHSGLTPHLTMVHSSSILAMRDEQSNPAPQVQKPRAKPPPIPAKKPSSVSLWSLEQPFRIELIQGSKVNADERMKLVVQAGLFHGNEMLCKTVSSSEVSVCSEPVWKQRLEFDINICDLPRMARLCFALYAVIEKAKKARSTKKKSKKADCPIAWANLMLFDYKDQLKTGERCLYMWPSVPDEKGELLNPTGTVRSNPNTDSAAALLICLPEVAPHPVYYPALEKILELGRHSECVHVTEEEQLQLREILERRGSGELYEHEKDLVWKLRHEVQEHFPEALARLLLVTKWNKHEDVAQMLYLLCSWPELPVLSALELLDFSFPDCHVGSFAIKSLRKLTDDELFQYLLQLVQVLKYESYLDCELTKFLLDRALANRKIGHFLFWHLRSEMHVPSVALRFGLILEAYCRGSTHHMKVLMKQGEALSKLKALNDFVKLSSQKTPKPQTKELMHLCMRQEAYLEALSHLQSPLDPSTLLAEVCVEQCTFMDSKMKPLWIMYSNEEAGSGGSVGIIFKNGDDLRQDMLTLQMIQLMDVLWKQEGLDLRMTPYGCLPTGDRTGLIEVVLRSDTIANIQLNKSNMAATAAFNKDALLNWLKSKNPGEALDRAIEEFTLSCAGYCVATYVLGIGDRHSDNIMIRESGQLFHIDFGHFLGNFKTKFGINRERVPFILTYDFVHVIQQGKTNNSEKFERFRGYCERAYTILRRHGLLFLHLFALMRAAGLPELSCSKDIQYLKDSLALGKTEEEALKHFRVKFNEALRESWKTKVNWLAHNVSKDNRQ
# How it was run: (§1)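 Uses KINOMEscan technology to determine binding affinity toward the kinase enzymes.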
# PI3Kβ = biological target: T2, PI3Kβ (Homo sapiens, UniProt P42338); assay: Enzyme binding assay (KINOMEscan, DiscoveRx); settings: PIK3Cβ_h, read-out: Kd PIK3Cβ_h
# T2 construct: purchased DiscoveRx Corporation, San Diego (contract service, KINOMEscan)
# T2 sequence (P42338 whole entry): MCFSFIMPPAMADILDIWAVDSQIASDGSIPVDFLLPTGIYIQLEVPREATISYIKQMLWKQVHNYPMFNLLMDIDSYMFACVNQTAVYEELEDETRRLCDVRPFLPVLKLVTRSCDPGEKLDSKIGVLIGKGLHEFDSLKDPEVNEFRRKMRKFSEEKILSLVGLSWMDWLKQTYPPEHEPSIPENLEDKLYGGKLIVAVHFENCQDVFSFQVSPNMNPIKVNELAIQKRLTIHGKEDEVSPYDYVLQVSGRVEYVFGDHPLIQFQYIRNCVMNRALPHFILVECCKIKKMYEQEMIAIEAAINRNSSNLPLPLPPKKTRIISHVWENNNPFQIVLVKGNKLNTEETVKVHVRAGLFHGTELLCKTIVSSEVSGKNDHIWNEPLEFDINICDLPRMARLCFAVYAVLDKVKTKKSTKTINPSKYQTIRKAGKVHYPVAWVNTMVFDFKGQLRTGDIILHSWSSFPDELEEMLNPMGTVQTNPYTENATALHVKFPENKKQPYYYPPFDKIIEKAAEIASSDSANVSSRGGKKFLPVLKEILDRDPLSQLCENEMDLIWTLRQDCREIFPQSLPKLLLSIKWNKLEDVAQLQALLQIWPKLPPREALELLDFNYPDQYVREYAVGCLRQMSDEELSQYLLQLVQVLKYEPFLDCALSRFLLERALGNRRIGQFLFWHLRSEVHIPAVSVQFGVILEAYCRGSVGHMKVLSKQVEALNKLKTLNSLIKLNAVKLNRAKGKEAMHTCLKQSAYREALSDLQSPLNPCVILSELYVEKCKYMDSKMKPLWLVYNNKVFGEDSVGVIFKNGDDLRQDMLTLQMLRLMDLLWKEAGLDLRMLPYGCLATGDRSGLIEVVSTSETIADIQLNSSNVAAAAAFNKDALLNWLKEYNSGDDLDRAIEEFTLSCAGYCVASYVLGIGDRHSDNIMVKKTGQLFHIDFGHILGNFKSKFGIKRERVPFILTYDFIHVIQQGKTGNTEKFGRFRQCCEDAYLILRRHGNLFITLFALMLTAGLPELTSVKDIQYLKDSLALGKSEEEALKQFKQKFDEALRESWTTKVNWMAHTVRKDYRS
# How it was run: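 Using the KINOMEscan format, the enzyme binding affinity of each compound was determined. Each value is the inhibitor binding constant, Kd (nM).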
# [1] = test system: Akt phosphorylated at Thr308 in PC-3 cells; assay: Cellular assay: phosphorylation of Akt at Thr308 in PC-3 cells (MSD ELISA); assay type: cell-based; settings: PC-3 cells, 60 min compound incubation, MSD ELISA, read-out: IC50 pAkt_Thr308
# How it was run: (§2)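 Phospho-Akt in whole-cell lysates is quantified by electrochemiluminescent immunoassay using phospho-site capture and total-Akt detection antibodies.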
# kinase enzymes [2] = biological target: T3, kinase enzymes (Homo sapiens, UniProt P42336); assay: Enzyme binding assay (KINOMEscan, DiscoveRx), further kinases of Table A; settings: PIK3Cα_h
# T3 construct: purchased DiscoveRx Corporation, San Diego (contract service, KINOMEscan)
# T3 sequence (P42336 whole entry): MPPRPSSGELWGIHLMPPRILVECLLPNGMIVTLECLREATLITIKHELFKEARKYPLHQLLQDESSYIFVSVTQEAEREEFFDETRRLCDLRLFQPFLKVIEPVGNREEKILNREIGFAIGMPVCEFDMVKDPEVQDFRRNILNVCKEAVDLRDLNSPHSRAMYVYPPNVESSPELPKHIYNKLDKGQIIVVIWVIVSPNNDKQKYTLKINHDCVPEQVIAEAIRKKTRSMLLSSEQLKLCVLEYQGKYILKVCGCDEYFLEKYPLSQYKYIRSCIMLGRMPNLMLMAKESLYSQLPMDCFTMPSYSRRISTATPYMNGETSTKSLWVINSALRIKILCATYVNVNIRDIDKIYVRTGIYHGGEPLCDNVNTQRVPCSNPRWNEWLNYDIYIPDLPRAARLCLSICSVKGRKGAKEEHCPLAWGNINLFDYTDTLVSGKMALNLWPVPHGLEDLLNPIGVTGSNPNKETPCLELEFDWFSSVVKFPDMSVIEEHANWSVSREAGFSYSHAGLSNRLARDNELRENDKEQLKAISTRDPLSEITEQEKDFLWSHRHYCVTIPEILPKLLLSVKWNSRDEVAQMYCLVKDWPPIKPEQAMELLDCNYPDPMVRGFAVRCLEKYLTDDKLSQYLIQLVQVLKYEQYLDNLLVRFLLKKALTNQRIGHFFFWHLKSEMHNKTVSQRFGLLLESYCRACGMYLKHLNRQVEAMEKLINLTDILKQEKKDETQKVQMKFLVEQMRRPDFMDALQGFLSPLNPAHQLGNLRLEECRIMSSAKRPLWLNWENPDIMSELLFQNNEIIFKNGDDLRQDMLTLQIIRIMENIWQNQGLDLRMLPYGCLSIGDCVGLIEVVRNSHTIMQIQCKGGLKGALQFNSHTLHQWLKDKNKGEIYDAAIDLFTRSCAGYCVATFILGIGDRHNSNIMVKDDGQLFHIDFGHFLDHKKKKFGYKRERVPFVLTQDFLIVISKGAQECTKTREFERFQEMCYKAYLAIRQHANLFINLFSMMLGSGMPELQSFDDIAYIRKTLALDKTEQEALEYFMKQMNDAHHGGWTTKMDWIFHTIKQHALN
# How it was run: as §1
# kinase enzymes [3] = biological target: T4, kinase enzymes (Homo sapiens, UniProt P48736); assay: as above; settings: PIK3Cγ_h
# T4 construct: purchased DiscoveRx Corporation, San Diego (contract service, KINOMEscan)
# T4 sequence (P48736 whole entry): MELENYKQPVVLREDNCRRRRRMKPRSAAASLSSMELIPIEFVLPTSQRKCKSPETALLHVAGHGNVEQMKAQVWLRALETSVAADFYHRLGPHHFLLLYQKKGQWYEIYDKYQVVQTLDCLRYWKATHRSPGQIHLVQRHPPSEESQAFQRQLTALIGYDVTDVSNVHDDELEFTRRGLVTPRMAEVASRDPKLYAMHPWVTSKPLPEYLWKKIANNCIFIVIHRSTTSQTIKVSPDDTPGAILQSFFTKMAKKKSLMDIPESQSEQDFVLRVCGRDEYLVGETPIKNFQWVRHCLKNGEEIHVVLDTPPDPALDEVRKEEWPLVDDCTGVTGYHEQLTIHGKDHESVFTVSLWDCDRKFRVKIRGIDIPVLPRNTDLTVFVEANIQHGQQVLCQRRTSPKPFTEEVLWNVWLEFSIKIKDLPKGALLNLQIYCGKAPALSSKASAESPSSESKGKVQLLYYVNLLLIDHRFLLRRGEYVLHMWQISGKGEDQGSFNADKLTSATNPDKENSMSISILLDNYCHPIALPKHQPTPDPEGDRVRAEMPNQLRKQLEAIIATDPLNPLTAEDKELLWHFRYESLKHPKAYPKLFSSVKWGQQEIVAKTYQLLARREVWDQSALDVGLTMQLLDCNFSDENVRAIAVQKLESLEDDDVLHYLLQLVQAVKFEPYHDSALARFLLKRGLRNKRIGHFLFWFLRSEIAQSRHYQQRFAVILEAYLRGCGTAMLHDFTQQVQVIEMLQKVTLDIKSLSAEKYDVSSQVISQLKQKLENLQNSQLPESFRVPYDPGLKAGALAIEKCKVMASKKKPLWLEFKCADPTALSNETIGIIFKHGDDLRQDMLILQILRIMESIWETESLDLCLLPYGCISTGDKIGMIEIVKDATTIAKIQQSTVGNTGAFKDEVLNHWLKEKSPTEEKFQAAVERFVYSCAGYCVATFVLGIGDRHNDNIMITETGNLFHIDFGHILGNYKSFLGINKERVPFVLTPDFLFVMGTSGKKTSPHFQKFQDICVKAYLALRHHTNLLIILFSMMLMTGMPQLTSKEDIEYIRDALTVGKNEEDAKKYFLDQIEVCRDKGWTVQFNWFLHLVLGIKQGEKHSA
# How it was run: as §1
# kinase enzymes [4] = biological target: T5, kinase enzymes (Homo sapiens, UniProt P42345); assay: as above; settings: MTOR_h
# T5 construct: purchased DiscoveRx Corporation, San Diego (contract service, KINOMEscan)
# How it was run: as §1
# [5] = test system: Akt phosphorylated at Ser473 in PC-3 cells; assay: Cellular assay: phosphorylation of Akt at Ser473 in PC-3 cells (MSD ELISA); assay type: cell-based; settings: PC-3 cells, 60 min compound incubation, MSD ELISA, read-out: IC50 pAkt_S473
# How it was run: as §2
SMILES,Kd (PI3Kδ) [nM],Kd (PI3Kβ) [nM],IC50 [1] [nM],melting point [°C],Kd (kinase enzymes [2]) [nM],Kd (kinase enzymes [3]) [µM],Kd (kinase enzymes [4]) [µM],IC50 [5] [nM],"IC50 ([1]; Homo sapiens, PC-3, 1 h) [nM]","IC50 ([5]; Homo sapiens, PC-3, 1 h) [nM]"
"CC(C)NCCNC(=O)c1cc(C(C)Nc2cccc(F)c2)c2nc(N3CCOCC3)cnc2c1 (single isomer, unassigned) [Compound 227]",339,1,20,80,1780,3.8,> 30.2,27,,
"CC(Nc1cc(F)cc(F)c1)c1cc(C(=O)N2CCNC(C(F)(F)F)C2)cc2ncc(N3CCOCC3)nc12 (single isomer, unassigned) [Compound 237a]",204,1,4,120,105,5.01,> 30.2,6,,
"CC(Nc1cc(F)cc(F)c1)c1cc(C(=O)NS(N)(=O)=O)cc2ncc(N3CCOCC3)nc12 (single isomer, unassigned) [Compound 243a]",69,0.5,,160,39,0.1,1.48,,> 513,> 513
"CC(Nc1cc(F)cc(F)c1)c1cc(C(=O)NS(N)(=O)=O)cc2ncc(N3CCOCC3)nc12 (single isomer, unassigned) [Compound 243b]",3390,14,> 513,200,1660,1.95,1.35,> 513,,
"COC(=O)c1cc(C2CCCN2c2cc(F)cc(F)c2)c2nc(N3CCOCC3)cnc2c1 (single isomer, unassigned) [Compound 249]",955,4,52,211,794,2.4,> 30.2,71,,
"O=C(O)c1cc(C2CCCN2c2cc(F)cc(F)c2)c2nc(N3CCOCC3)cnc2c1 (single isomer, unassigned) [Compound 251]",23,0.3,,299,8,0.065,0.676,,23,52
"CC(Nc1ccc(F)c(F)c1)c1cc(C(=O)NCCO)cc2ncc(N3CCOCC3)nc12 (single isomer, unassigned) [Compound 279a]",513,7,41,80,2190,5.62,21.4,,,58
"CC(Nc1ccc(F)c(F)c1)c1cc(C(=O)NCCCO)cc2ncc(N3CCOCC3)nc12 (single isomer, unassigned) [Compound 280a]",562,12,45,80,1700,12,20.9,87,,
"CC(Nc1ccc(F)c(F)c1)c1cc(C(=O)NCCN(C)C)cc2ncc(N3CCOCC3)nc12 (single isomer, unassigned) [Compound 281a]",72,0.3,3,102,1510,4.07,23.4,5,,
"CC(C)NCCNC(=O)c1cc(C(C)Nc2cc(F)c(F)c(F)c2)c2nc(N3CCOCC3)cnc2c1 (single isomer, unassigned) [Compound 283a]",1550,7,,173,12000,19.1,> 30.2,,52,81
"CC(Nc1cc(F)c(F)c(F)c1)c1cc(C(=O)NC[C@@H](C)O)cc2ncc(N3CCOCC3)nc12 (single isomer, unassigned) [Compound 284a]",939,10,61,113,2080,8.14,19.1,90,,
"CC(Nc1cc(F)c(F)c(F)c1)c1cc(C(=O)NC[C@@H](C)O)cc2ncc(N3CCOCC3)nc12 (single isomer, unassigned) [Compound 284b]",> 30200,2150,> 513,112,> 30200,5.07,> 30.2,> 513,,
"CC(Nc1ccc(F)c(F)c1)c1cc(C(=O)N2CCN3CCC[C@H]3C2)cc2ncc(N3CCOCC3)nc12 (single isomer, unassigned) [Compound 287b]",2950,27,,95,9330,> 30.2,> 30.2,,417,> 513
"CC(Nc1cc(F)c(F)c(F)c1)c1cc(C(=O)NCC(C)(C)O)cc2ncc(N3CCOCC3)nc12 (single isomer, unassigned) [Compound 292a]",603,17,98,110,2820,21.9,32.4,155,,
"Cc1ccc(NC(C)c2cc(C(=O)NCCO)cc3ncc(N4CCOCC4)nc23)cc1F (single isomer, unassigned) [Compound 295b]",> 30200,19500,,120,> 30200,4.57,> 30.2,,> 513,> 513
"CC(Nc1ccc(F)c(F)c1)c1cc(C(=O)N2CC[C@@H](O)C2)cc2ncc(N3CCOCC3)nc12 (single isomer, unassigned) [Compound 300a]",191,2,,140,1480,5.49,> 30.2,,19,29
"CC(Nc1ccc(F)c(F)c1)c1cc(C(=O)N2CCC[C@H](O)C2)cc2ncc(N3CCOCC3)nc12 (single isomer, unassigned) [Compound 302a]",> 30200,1320,,135,> 30200,> 30.2,> 30.2,,> 513,> 513
"CNCCOCCN(C)C(=O)c1cc(C(C)Nc2cc(F)c(F)c(F)c2)c2nc(N3CCOCC3)cnc2c1 (single isomer, unassigned) [Compound 315a]",> 30200,2240,> 20.4,86,> 30200,> 30.2,> 30.2,,,195
"CNCCOCCN(C)C(=O)c1cc(C(C)Nc2cc(F)c(F)c(F)c2)c2nc(N3CCOCC3)cnc2c1 (single isomer, unassigned) [Compound 315b]",162,1,~85,90,2750,5.49,> 30.2,~110,,
"CC(Nc1cccc(F)c1)c1cc(C(=O)N2CCC[C@H](O)C2)cc2ncc(N3CCOCC3)nc12 (single isomer, unassigned) [Compound 320a]",182,2,,110,513,4.47,> 30.2,,17,20
